Measured values: US11926595B1, “2-(2-ethoxyethoxy)-6-(4-hydroxyphenyl)-4-(4-methylphenyl)nicotinonitrile as an antimicrobial compound” (KING FAISAL UNIVERSITY, priority 2023, dated 2024)

What was measured:
Staphylococcus aureus = test: Antimicrobial screening by agar dilution, Staphylococcus aureus; assay type: cell-based; conditions: after 10, 20, 40 and 60 minutes at all dilutions 1:100, 1:200, 1:400, 1:800
Procedure: (§1) The antibacterial properties of the synthesized compound 2-(2-ethoxyethoxy)-6-(4-hydroxyphenyl)-4-(4-methylphenyl)nicotinonitrile were studied by the method of agar dilution. Test solutions of each compound was prepared in concentration of 1% using dimethylformamide as a solvent then they are diluted in physiological solution to obtain the final experimental dilutions 1: 100, 1:200, 1:400, 1:800. The effect of these substances are compared with furacillin in a controllable study. The testing microbes used were gram positive bacteria Staphylococcus aureus, gram negative bacteria Pseudomonas aeruginosa and Escherichia coli and Candida albicans fungus. The experiments used for this survey were meat-pentonlu agar (EPA) for cultivation of bacteria and Saburo environment for the fungus. Each experiment used 1 mL of test solution on each plate […]. Two drops of emulsified with microbes feel were added. All experimental samples were taken from the agar after 10, 20, 40, 60 minutes in the environment on the basis of Patrk planted. The bacteria were cultivated at a temperature of 37° C. for 1 day and the mushroom was kept in a thermostat for 2 hours at a temperature of 28° C. Then results were checked.

Escherichia coli = test: Antimicrobial screening by agar dilution, Escherichia coli; assay type: cell-based; conditions: after 10, 20, 40 and 60 minutes at all dilutions 1:100, 1:200, 1:400, 1:800
Procedure: as §1

Pseudomonas aeruginosa = test: Antimicrobial screening by agar dilution, Pseudomonas aeruginosa; assay type: cell-based; conditions: after 10, 20, 40 and 60 minutes at all dilutions 1:100, 1:200, 1:400, 1:800
Procedure: as §1

Candida albicans = test: Antimicrobial screening by agar dilution, Candida albicans; assay type: cell-based; conditions: after 10, 20, 40 and 60 minutes at all dilutions 1:100, 1:200, 1:400, 1:800
Procedure: as §1

SMILES: CCOCCOc1nc(-c2ccc(O)cc2)cc(-c2ccc(C)cc2)c1C#N [2-(2-ethoxyethoxy)-6-(4-hydroxyphenyl)-4-(4-methylphenyl)nicotinonitrile]
- inhibition activity (summary in words) (Staphylococcus aureus): highest inhibition activity
- inhibition activity (summary in words) (Escherichia coli): highest inhibition activity
- inhibition activity (summary in words) (Pseudomonas aeruginosa): highest inhibition activity
- inhibition activity (summary in words) (Candida albicans): highest inhibition activity
- melting point: 175 to 177 °C
